Where a SMILES comes first, the peptide text is derived from it.

One assay deals with hMC1−5R. In words: Melanocortin receptor radioligand binding, result stated for all receptors together. Also noted: species or system human. The note with it: human MC receptors, radioligand binding. The text has this:
Example concentration response curves for selected PepNats in MC1R, MC3R, MC4R, MC5R radioligand binding assays and MC1R, MC3R, MC4R cAMP assays. Responses were normalized to reference agonist NDP -α-MSH and presented as % effect of control, with full competition in binding defined as -100% and full agonism in cAMP assays defined as […]
binding assay. Threshold to define a compound as active was set to -30% in binding assays and 20% in cAMP assays respectively. Data are from at least three independent experiments and error bars represent ± Standard Error of the […]
% s p e c ific b in d in g o f
(1 picture or pasted object on this page, not shown here) […]
expression, MC1R and MC4R transfected cells were treated with 0.1 ng /mL and MC3R transfected cells with 10 ng/mL doxycyclin, for 24 h before assay.
Melanocortin receptor radioligand binding and cAMP assays.
Binding and cAMP assays were performed as described by Durek et al.7 “A 384-well format scintillation proximity assay (SPA) was used to identify compounds that show competitive binding to the human Melanocortin receptor 1,3,4 or 5 ligand binding domain (LBD). […] The inhibition of the scintillation signal by displacement of [ 125I]- NDP-α-MSH by test compounds were detected by a 1450 MicroBeta Trilux scintillation counter […]
Plates were incubated for 16-23 h in the dark at room temperature before reading on a 1450 […]
Measurements of cAMP production were performed using LANCE® cAMP kits (PerkinElmer) in a total assay volume of 12 µl/well. […] The reaction was stopped with detection buffer containing 10 µM Biotin-cAMP and 15 µM LANCE Eu-W8044 labelled streptavidin (PerkinElmer LANCE cAMP kit). cAMP production was detected by homogenous time resolved fluorescence (HTRF) (λex = 340 nm, λem = 665 and 615 nm) using a Pherastar (BMG Labtech).
PepNats, literature compounds and references were tested in ten-point concentration response (½ log serial dilution) with 100, 10 or 1 µM as final start concentrations. Raw data output was analyzed in Screener software (Genedata AG) and pEC50 and pIC50 values calculated using a four-

The next assay addresses T1, human MC5R (Homo sapiens, UniProt P33032).
T1 construct: expressed in transfected cells; host or cells: HEK293-6E suspension cells, transient expression; membranes
In words: Melanocortin receptor radioligand binding (SPA, [125I]-NDP-α-MSH displacement), MC5R. The following applies: competitive binding, [125I]-NDP-α-MSH; mean (± SEM) of at least three independent experiments; read-out: IC50 hMC5R binding.

The target in assay [1] is T2, human MC4R (Homo sapiens, UniProt P32245).
T2 construct: expressed in transfected cells
As to the kind of experiment: Melanocortin receptor radioligand binding (SPA, [125I]-NDP-α-MSH displacement), MC4R. The note with it: competitive binding, mean (± SEM) of at least three independent experiments, read-out: IC50 hMC4R binding.

In assay [2] the target is T3, human MC1R (Homo sapiens, UniProt Q01726).
T3 construct: expressed in transfected cells
As to the kind of experiment: Melanocortin receptor radioligand binding (SPA, [125I]-NDP-α-MSH displacement), MC1R. The note with it: competitive binding, mean (± SEM) of at least three independent experiments, read-out: IC50 hMC1R binding.

For assay [3], the target named is T4, human MC3R (Homo sapiens, UniProt P41968).
T4 construct: expressed in transfected cells
As to the kind of experiment: cAMP assay (LANCE) in T-Rex-293 cells expressing MC3R. Type of assay: cell-based. The following applies: cAMP assay; mean (± SEM) of at least three independent experiments; read-out: EC50 hMC3R cAMP.

The target in assay [4] is T2, human MC4R. As to the kind of experiment: cAMP assay (LANCE) in T-Rex-293 cells expressing MC4R. The assay is classed as cell-based. The following applies: cAMP assay; mean (± SEM) of at least three independent experiments; read-out: EC50 hMC4R cAMP.
Assay [5] addresses T4, human MC3R. As to the kind of experiment: Melanocortin receptor radioligand binding (SPA, [125I]-NDP-α-MSH displacement), MC3R. The following applies: competitive binding, mean (± SEM) of at least three independent experiments, read-out: IC50 hMC3R binding.
The target of assay [6] is T3, human MC1R. In words: cAMP assay (LANCE) in T-Rex-293 cells expressing MC1R. Type of assay: cell-based. For orientation: cAMP levels reflect the balance of adenylyl cyclase and phosphodiesterase activity.

T3 sequence (Q01726 whole entry): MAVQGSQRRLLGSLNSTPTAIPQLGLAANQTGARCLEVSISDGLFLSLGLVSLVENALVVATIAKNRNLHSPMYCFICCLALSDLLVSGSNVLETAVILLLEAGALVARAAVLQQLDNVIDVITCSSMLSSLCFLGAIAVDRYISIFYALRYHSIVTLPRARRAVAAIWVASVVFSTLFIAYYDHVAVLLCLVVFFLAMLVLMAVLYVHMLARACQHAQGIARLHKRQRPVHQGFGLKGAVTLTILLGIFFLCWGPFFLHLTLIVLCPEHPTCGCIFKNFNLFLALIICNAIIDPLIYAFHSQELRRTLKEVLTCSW
T2 sequence (P32245 whole entry): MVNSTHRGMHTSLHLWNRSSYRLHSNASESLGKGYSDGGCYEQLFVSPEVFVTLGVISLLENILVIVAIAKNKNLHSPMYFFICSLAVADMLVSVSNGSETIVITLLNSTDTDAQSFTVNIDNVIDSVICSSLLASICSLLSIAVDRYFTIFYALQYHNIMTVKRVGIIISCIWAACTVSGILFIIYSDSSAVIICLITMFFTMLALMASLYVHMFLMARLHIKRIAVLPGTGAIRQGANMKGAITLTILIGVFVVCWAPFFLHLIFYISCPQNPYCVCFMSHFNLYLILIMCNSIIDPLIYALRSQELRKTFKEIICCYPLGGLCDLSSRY
T4 sequence (P41968 whole entry): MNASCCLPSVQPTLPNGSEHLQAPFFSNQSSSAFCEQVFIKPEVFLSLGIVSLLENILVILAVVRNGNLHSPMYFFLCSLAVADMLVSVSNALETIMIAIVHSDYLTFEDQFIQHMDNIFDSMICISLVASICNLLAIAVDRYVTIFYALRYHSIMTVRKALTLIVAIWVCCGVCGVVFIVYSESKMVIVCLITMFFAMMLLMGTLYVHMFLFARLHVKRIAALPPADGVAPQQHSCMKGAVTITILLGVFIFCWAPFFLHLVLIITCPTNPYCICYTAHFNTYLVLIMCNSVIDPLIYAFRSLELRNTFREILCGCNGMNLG
T1 sequence (P33032 whole entry): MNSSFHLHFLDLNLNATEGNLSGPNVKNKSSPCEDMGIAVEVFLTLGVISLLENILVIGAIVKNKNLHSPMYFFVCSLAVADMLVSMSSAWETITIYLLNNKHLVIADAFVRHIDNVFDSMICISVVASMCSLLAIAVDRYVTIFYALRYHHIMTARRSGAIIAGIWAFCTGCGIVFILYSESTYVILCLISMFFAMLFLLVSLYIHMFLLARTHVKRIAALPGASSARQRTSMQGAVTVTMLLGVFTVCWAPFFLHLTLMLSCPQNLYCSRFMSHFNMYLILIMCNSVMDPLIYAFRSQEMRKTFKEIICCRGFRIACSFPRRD

Usually IC50 stands for the point on the concentration scale where inhibition reaches its midpoint. A word on the EC50: it is the concentration giving half of the maximal effect. Take `C[C@@H]1NC(=O)[C@H](CC(N)=O)NC(=O)[C@H](Cc2ccccc2)NC(=O)[C@H](Cc2ccccc2)NC(=O)[C@H](CCCNC(=N)N)NC(=O)[C@@H](NC(=O)[C@@H](N)Cc2ccc(O)cc2)CSSC[C@@H](C(=O)N[C@@H](Cc2ccc(O)cc2)C(N)=O)NC(=O)[C@H](Cc2ccccc2)NC1=O` [compound 28, reference compound] (HELM PEPTIDE1{Y.C.R.F.F.N.A.F.C.Y.[am]}$PEPTIDE1,PEPTIDE1,2:R3-9:R3$$$V2.0): in the assay with hMC1−5R, the “binding to the MC receptors (in words)” value was “micromolar affinity”. Also, the IC50 worked out at 1.6 ± 0.3 µM on human MC5R, 0.18 ± 0.01 µM on human MC4R [1], 10 ± 1 µM at human MC1R [2] and 1.6 ± 0.1 µM on human MC3R [5]. Also, the EC50 at human MC3R [3] was above 100 µM; on human MC4R [4], above 100 µM; on human MC1R [6] (cAMP assay, mean (± SEM) of at least three independent experiments, read-out: EC50 hMC1R cAMP), 1.2 ± 0.4 µM. For the same compound, the Emax on human MC1R [6] (T-REx-293, read-out: % Effect hMC1R cAMP) came to 44%. Further, the “agonistic activity at MC1R (in words)” value at human MC1R [6] (cAMP assay, hMC1R) is on record as “weak partial agonistic activity”.

The values are drawn from PMC7307906, “Macrocyclic Modalities Combining Peptide Epitopes and Natural Product Fragments” (Journal of the American Chemical Society, 2020).
